Laboratory results reported in article PMC9790248, “Effects of CYP3A Inhibition, CYP3A Induction, and Gastric Acid Reduction on the Pharmacokinetics of Ripretinib, a Switch Control KIT Tyrosine Kinase Inhibitor” (Clinical Pharmacology in Drug Development, 2022).

Key:
[1] = cited from earlier work
[2] = target: T1, CYP2C8 (Homo sapiens, UniProt P10632); test: Incubation with recombinant human CYPs, substrate disappearance; type: in vitro ADME; details: data on file
T1 sequence (P10632 1-490): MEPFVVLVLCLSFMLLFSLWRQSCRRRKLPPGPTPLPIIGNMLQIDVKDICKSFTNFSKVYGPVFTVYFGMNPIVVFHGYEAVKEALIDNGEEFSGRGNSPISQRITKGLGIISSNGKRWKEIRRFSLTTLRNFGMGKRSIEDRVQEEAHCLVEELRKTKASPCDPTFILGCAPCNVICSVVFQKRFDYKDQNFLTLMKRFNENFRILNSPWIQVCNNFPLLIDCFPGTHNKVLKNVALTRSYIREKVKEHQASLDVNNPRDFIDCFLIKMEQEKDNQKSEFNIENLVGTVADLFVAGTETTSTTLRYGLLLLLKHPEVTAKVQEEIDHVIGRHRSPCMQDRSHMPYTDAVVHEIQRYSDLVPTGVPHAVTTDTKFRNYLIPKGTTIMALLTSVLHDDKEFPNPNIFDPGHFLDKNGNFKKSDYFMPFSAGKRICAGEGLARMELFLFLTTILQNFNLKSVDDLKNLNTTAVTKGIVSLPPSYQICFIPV
Experimental: (§1) In vitro studies with recombinant human cytochrome P450 isoforms (CYPs) and human liver microsomes (with chemical inhibitors) indicate that CYP3A4/5 plays a major role in the metabolism of ripretinib (data on file). When incubated with a panel of recombinant human CYPs, ripretinib (0.1 or 1 μM) disappeared in the presence of CYP3A4 (87.8%–100%), CYP2D6 (97.7%–100%), CYP2C8 (71.2% and 18.9%, respectively), and CYP2C19 (15.7% and 6.7%, respectively).

[3] = target: T2, CYP2B6 (Homo sapiens, UniProt P20813); test: as above; type: in vitro ADME; details: ripretinib 0.1 or 1 μM, data on file
T2 sequence (P20813 1-491): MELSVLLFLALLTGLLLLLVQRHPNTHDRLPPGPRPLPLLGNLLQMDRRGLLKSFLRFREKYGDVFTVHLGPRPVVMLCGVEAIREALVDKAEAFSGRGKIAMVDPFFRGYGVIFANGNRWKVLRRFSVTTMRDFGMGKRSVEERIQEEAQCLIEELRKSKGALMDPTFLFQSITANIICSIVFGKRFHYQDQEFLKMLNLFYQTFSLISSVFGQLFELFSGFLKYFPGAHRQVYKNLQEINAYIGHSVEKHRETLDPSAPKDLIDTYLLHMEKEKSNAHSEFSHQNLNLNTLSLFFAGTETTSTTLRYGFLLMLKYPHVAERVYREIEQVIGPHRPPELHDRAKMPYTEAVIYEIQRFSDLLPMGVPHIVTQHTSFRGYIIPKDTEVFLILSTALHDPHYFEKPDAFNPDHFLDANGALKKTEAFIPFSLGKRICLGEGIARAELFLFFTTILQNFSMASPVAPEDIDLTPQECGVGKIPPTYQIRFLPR
Experimental: as §1

[4] = target: T3, CYP1A2 (Homo sapiens, UniProt P05177); test: as above; type: in vitro ADME; details: ripretinib 0.1 or 1 μM, data on file
T3 sequence (P05177 1-516): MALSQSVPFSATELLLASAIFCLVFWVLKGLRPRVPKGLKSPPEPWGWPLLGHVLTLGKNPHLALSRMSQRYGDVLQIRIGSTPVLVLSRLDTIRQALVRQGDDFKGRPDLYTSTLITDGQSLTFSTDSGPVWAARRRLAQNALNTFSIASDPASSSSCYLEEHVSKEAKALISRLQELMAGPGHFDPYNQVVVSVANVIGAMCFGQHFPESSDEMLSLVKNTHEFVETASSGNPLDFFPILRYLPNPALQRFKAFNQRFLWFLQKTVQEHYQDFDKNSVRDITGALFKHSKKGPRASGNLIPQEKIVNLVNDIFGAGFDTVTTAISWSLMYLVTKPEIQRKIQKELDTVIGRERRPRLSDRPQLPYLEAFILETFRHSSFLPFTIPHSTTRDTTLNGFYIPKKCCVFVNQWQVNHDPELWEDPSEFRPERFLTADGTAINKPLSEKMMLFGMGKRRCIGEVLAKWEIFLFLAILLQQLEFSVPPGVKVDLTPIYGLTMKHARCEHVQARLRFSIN
Experimental: as §1

[5] = target: CYP3A4 (Homo sapiens, UniProt P08684); test: as above; type: in vitro ADME; details: ripretinib 0.1 or 1 μM, data on file
Sequence of CYP3A4 (P08684 whole entry): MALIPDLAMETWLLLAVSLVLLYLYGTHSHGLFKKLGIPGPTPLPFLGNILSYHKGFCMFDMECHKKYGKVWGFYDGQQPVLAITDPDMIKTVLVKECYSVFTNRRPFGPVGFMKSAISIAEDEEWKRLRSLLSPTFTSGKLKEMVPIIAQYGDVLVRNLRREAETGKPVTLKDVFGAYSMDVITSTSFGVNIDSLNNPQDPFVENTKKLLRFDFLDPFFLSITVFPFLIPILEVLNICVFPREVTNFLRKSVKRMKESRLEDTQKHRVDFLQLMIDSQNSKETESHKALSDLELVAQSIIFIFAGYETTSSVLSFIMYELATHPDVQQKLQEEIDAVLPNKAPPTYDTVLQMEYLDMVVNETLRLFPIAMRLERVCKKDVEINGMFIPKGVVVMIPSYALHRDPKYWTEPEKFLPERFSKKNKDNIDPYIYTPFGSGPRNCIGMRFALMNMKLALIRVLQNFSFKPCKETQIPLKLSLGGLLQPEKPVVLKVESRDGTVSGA
Experimental: as §1

[6] = target: T4, CYP2D6 (Homo sapiens, UniProt P10635); test: Human liver microsomes with chemical inhibitors; type: in vitro ADME
T4 construct: with human liver microsomes (0.5 mg protein/mL) for 30 minutes; from tissue; host or cells: human liver microsomes
T4 sequence (P10635 whole entry): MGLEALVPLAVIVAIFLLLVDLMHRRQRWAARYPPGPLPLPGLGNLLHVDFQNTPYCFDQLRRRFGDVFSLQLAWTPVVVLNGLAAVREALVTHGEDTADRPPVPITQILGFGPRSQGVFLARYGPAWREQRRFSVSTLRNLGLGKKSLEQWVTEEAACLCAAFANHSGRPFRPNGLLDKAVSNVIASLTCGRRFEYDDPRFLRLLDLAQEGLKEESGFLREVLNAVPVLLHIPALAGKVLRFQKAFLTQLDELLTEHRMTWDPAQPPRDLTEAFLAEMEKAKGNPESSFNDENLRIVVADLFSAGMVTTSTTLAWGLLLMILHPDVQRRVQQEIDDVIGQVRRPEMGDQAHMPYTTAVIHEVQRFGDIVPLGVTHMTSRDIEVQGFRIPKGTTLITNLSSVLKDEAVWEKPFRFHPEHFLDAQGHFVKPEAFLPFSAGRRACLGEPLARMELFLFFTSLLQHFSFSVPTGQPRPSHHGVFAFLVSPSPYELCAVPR
Experimental: as §1

[7] = target: T1, CYP2C8; test: Human liver microsomes with chemical inhibitors; type: in vitro ADME; details: metabolism-dependent inhibitor gemfibrozil glucuronide
Experimental: as §1

[8] = tested on: CYP3A4/5; test: Human liver microsomes with chemical inhibitors; type: in vitro ADME
Experimental: as §1

[9] = Concentration-corrected QT interval analysis; type: in vivo; details: across a range of plasma concentration; data on file
Experimental: In the current study, itraconazole was administered as an oral solution on an empty stomach to ensure the highest oral absorption under fasting conditions and minimize gastrointestinal tract irritation during fasting. […] The tolerability of higher exposure is supported by previous safety and PK data.[7], [10] In a phase 1 study of ripretinib in patients with cancer, the maximum tolerated dose was not reached with doses up to ripretinib 200 mg twice daily.[7] Dose escalation to ripretinib 150 mg twice daily was offered to patients in a phase 1 and phase 3 clinical study after radiologic disease progression on 150 mg once daily.[7], [11] […] Steady‐state PK exposure following ripretinib 150 mg twice daily was approximately 2‐fold higher compared with ripretinib 150 mg once daily.[7], [10] […] However, the exposure–safety relationships were relatively shallow, and most AEs were Grades 1 and 2.

[10] = 20 mg once daily up to 150 mg once daily

SMILES: CCn1c(=O)c(-c2cc(NC(=O)Nc3ccccc3)c(F)cc2Br)cc2cnc(NC)cc21 [Ripretinib]
- Dose proportionality of AUC [1, 10]: generally proportional to dose
- Dose proportionality of Cmax [1, 10]: less than dose proportional
- Time to maximum plasma concentrations ([1]; cancer patients, after a single dose): approximately 4 hours
- Time to reach steady-state conditions ([1]; cancer patients): ≤ 14 days
- Accumulation ratio ([1]; once-daily dosing of 150 mg): approximately 1.7
- Maximum tolerated dose ([1]; patients with cancer, doses up to ripretinib 200 mg twice daily): not reached
- Steady-state PK exposure, 150 mg twice daily compared with 150 mg once daily ([1]; patients): approximately 2 fold
- Substrate disappearance ([2]; ripretinib 0.1 μM): 71.2%
- Substrate disappearance ([2]; ripretinib 1 μM): 18.9%
- Substrate disappearance [3]: less than 7%
- Substrate disappearance [4]: less than 7%
- Substrate disappearance [5]: 87.8%–100%
- Inhibition of metabolism of ripretinib on inhibition of CYP2D6 ([6]; human liver microsomes, metabolism-dependent inhibitor paroxetine): 16%
- Decrease in metabolism of ripretinib on inhibition of CYP2D6 ([6]; ripretinib 0.1 μM, human liver microsomes 0.5 mg protein/mL, 30 minutes, with quinidine): ≤ 26%
- Inhibition of metabolism of ripretinib on inhibition of CYP2C8 [7]: 24%
- Inhibition of metabolism of ripretinib on inhibition of CYP3A4/5 ([8]; human liver microsomes, metabolism-dependent inhibitor troleandomycin): 79%
- Role of CYP3A4/5 in metabolism ([8]; recombinant human CYPs and human liver microsomes with chemical inhibitors, data on file): major role
- Decrease in metabolism of ripretinib on inhibition of CYP3A4/5 ([8]; ripretinib 0.1 μM, human liver microsomes 0.5 mg protein/mL, 30 minutes, with ketoconazole): up to 63%
- Concentration-corrected QT interval analysis [9]: did not suggest particular concern
